According to patent US20260265251A1 (priority 2023, published 2026):

Assays:
A2058 cells = test: A2058 cell proliferation assay; assay type: cell-based; conditions: Homo sapiens, 96 hours, CellTiter-Glo
SK-MEL-3 cells = test: SK-MEL-3 cell proliferation assay; assay type: cell-based; conditions: Homo sapiens, SK-MEL3; SK-MEL-3 cells, 72 hours, CellTiter-Glo; read-out: SK-MEL-3 IC50

Structure (SMILES)	IC50 (A2058 cells) [nM]	IC50 (SK-MEL-3 cells) [nM]
O=c1[nH]c2cc3cc(-c4cnn(C(F)F)c4Cl)c(Cl)cc3nc2[nH]1 [Example 88, 6-chloro-7-(5-chloro-1-(difluoromethyl)-1H-pyrazol-4-yl)-1,3-dihydro-2H-imidazo[4,5-b]quinolin-2-one]	9.1	
CNc1ccc(-c2ccc3nc4[nH]c(=O)[nH]c4cc3c2)c(Cl)n1 [Example 40, 7-(2-chloro-6-(methylamino)pyridin-3-yl)-1,3-dihydro-2H-imidazo[4,5-b]quinolin-2-one]	8	
O=c1[nH]c2cc3cc(-c4cnn(C(F)F)c4OC(F)F)ccc3nc2[nH]1 [Example 42, 7-(5-(difluoromethoxy)-1-(difluoromethyl)-1H-pyrazol-4-yl)-1,3-dihydro-2H-imidazo[4,5-b]quinolin-2-one]	0.4	
O=c1[nH]c2cc3c(nc2[nH]1)CCN(c1ccc(F)c(C(F)(F)F)n1)C3 [Example 61, 7-(5-fluoro-6-(trifluoromethyl)pyridin-2-yl)-1,3,5,6,7,8-hexahydro-2H-imidazo[4,5-b][1,6]naphthyridin-2-one]	1.9	
O=c1[nH]c2cc3c(nc2[nH]1)CCN(c1ccc(Cl)nc1C(F)(F)F)C3 [Example 62, 7-(6-chloro-2-(trifluoromethyl)pyridin-3-yl)-1,3,5,6,7,8-hexahydro-2H-imidazo[4,5-b][1,6]naphthyridin-2-one]	31.9	
O=c1[nH]c2cc3c(nc2[nH]1)CCC(c1ccc(F)cc1)C3 (stereo not shown) [Example 57, 7-(4-fluorophenyl)-1,3,5,6,7,8-hexahydro-2H-imidazo[4,5-b]quinolin-2-one]	32.2	
O=c1[nH]c2cc3c(OC(F)F)c(-c4ccc(F)cc4)ccc3nc2[nH]1 [Example 77, 8-(difluoromethoxy)-7-(4-fluorophenyl)-1,3-dihydro-2H-imidazo[4,5-b]quinolin-2-one]		4.4
O=c1[nH]c2cc3c(Cl)c(N4CC5(CCC5)C4)ccc3nc2[nH]1 [Example 76, 8-chloro-7-(2-azaspiro[3.3]heptan-2-yl)-1,3-dihydro-2H-imidazo[4,5-b]quinolin-2-one]		2.3
O=c1[nH]c2cc3c(Cl)c(-c4ccc(C(F)F)cc4)ccc3nc2[nH]1 [Example 67, 8-chloro-7-(4-(difluoromethyl)phenyl)-1,3-dihydro-2H-imidazo[4,5-b]quinolin-2-one]		0.4
O=c1[nH]c2cc3c(Cl)c(-n4ccc(C(F)(F)F)n4)ccc3nc2[nH]1 [Example 90, 8-chloro-7-(3-(trifluoromethyl)-1H-pyrazol-1-yl)-1,3-dihydro-2H-imidazo[4,5-b]quinolin-2-one]		3.4
[2H]C([2H])([2H])c1c(-c2ccc3nc4[nH]c(=O)[nH]c4cc3c2)cnn1C(F)F [Example 45, 7-(1-(difluoromethyl)-5-(methyl-d3)-1H-pyrazol-4-yl)-1,3-dihydro-2H-imidazo[4,5-b]quinolin-2-one]	0.19	
O=c1[nH]c2cc3cc(-c4c(Cl)ncn4C(F)F)ccc3nc2[nH]1 [Example 38, 7-(4-chloro-1-(difluoromethyl)-1H-imidazol-5-yl)-1,3-dihydro-2H-imidazo[4,5-b]quinolin-2-one]		4.7
CNc1nc(Cl)ccc1-c1ccc2nc3[nH]c(=O)[nH]c3cc2c1 [Example 41, 7-(6-chloro-2-(methylamino)pyridin-3-yl)-1,3-dihydro-2H-imidazo[4,5-b]quinolin-2-one]	61	
Cc1ccc(-c2ccc3nc4c(cc3c2Cl)CC(=O)N4)cc1 [Example 2, 5-chloro-6-(p-tolyl)-1,3-dihydropyrrolo[2,3-b]quinolin-2-one]		37.9
O=c1[nH]c2cc3c(C(F)(F)F)c(-c4ccccc4)ccc3nc2[nH]1 [Example 80, 7-phenyl-8-(trifluoromethyl)-1,3-dihydro-2H-imidazo[4,5-b]quinolin-2-one]		0.5
O=c1[nH]c2cc3cc(-c4cn(C(F)F)nc4Cl)ccc3nc2[nH]1 [Example 12, 7-(3-chloro-1-(difluoromethyl)-1H-pyrazol-4-yl)-1,3-dihydro-2H-imidazo[4,5-b]quinolin-2-one]		0.3
COc1ncc(N2CCc3nc4[nH]c(=O)[nH]c4cc3C2)cc1C(F)(F)F [Example 91, 7-(6-methoxy-5-(trifluoromethyl)pyridin-3-yl)-1,3,5,6,7,8-hexahydro-2H-imidazo[4,5-b][1,6]naphthyridin-2-one]		281
O=c1[nH]c2cc3cc(-c4ccc(Cl)nc4OC(F)F)ccc3nc2[nH]1 [Example 39, 7-(6-chloro-2-(difluoromethoxy)pyridin-3-yl)-1,3-dihydro-2H-imidazo[4,5-b]quinolin-2-one]	3.3	
O=c1[nH]c2cc3c(nc2[nH]1)CCN(c1nc(C(F)(F)F)ccc1F)C3 [Example 60, 7-(3-fluoro-6-(trifluoromethyl)pyridin-2-yl)-1,3,5,6,7,8-hexahydro-2H-imidazo[4,5-b][1,6]naphthyridin-2-one]	1.7	
O=c1[nH]c2cc3c(Cl)c(N4CCC5(CC4)CC5)ccc3nc2[nH]1 [Example 81, 8-chloro-7-(6-azaspiro[2.5]octan-6-yl)-1,3-dihydro-2H-imidazo[4,5-b]quinolin-2-one]		9.7

Structure (SMILES)	IC50 (A2058 cells) [nM]	IC50 (SK-MEL-3 cells) [nM]
N#Cc1ccc(-c2ccc3nc4[nH]c(=O)[nH]c4cc3c2Cl)cc1 [Example 75, 8-chloro-7-(4-cyanophenyl)-1,3-dihydro-2H-imidazo[4,5-b]quinolin-2-one]		0.5
O=c1[nH]c2cc3cc(-c4ccc(F)cc4)ccc3nc2[nH]1 [Example 9, 7-(4-fluorophenyl)-1,3-dihydro-2H-imidazo[4,5-b]quinolin-2-one]		1.7
COc1ccc(-c2ccc3nc4[nH]c(=O)[nH]c4cc3c2Cl)cn1 [Example 72, 8-chloro-7-(6-methoxypyridin-3-yl)-1,3-dihydro-2H-imidazo[4,5-b]quinolin-2-one]		1
COc1cc(Cl)c(-c2ccc3nc4[nH]c(=O)[nH]c4cc3c2)cn1 [Example 8, 7-(4-chloro-6-methoxypyridin-3-yl)-1,3-dihydro-2H-imidazo[4,5-b]quinolin-2-one]		2.1
O=c1[nH]c2cc3c(nc2[nH]1)CCN(c1ccc(OC(F)(F)F)cc1Cl)C3 [Example 54, 7-(2-chloro-4-(trifluoromethoxy)phenyl)-1,3,5,6,7,8-hexahydro-2H-imidazo[4,5-b][1,6]naphthyridin-2-one]		198
Cc1ccc(-c2ccc3nc4[nH]c(=O)[nH]c4cc3c2Cl)nc1 [Example 70, 8-chloro-7-(5-methylpyridin-2-yl)-1,3-dihydro-2H-imidazo[4,5-b]quinolin-2-one]		2.9
O=c1[nH]c2cc3c(Cl)c(-c4ccc(F)cc4)ccc3nc2[nH]1 [Example 66, 8-chloro-7-(4-fluorophenyl)-1,3-dihydro-2H-imidazo[4,5-b]quinolin-2-one]		0.9
O=c1[nH]c2cc3c(Cl)c(-c4ccc(F)cc4Cl)ccc3nc2[nH]1 [Example 83, 8-chloro-7-(2-chloro-4-fluorophenyl)-1,3-dihydro-2H-imidazo[4,5-b]quinolin-2-one]		0.4
O=c1[nH]c2cc3c(nc2[nH]1)CCC(c1cn(C(F)F)nc1Cl)C3 (stereo not shown) [Example 63, 7-(3-chloro-1-(difluoromethyl)-1H-pyrazol-4-yl)-1,3,5,6,7,8-hexahydro-2H-imidazo[4,5-b]quinolin-2-one]	8.1	
O=c1[nH]c2cc3c(Cl)c(-c4cn(C(F)F)nc4Cl)ccc3nc2[nH]1 [Example 87, 8-chloro-7-(3-chloro-1-(difluoromethyl)-1H-pyrazol-4-yl)-1,3-dihydro-2H-imidazo[4,5-b]quinolin-2-one]	2	
O=c1[nH]c2cc3cc(-c4c(Cl)cnn4C(F)F)ccc3nc2[nH]1 [Example 16, 7-(4-chloro-1-(difluoromethyl)-1H-pyrazol-5-yl)-1,3-dihydro-2H-imidazo[4,5-b]quinolin-2-one]		1.6
O=c1[nH]c2cc3c(nc2[nH]1)CCN(c1cccc(Cl)c1)C3 [Example 59, 7-(3-chlorophenyl)-1,3,5,6,7,8-hexahydro-2H-imidazo[4,5-b][1,6]naphthyridin-2-one]		2.3
O=c1[nH]c2cc3cc(-c4cn(C(F)F)nc4Cl)c(Cl)cc3nc2[nH]1 [Example 89, 6-chloro-7-(3-chloro-1-(difluoromethyl)-1H-pyrazol-4-yl)-1,3-dihydro-2H-imidazo[4,5-b]quinolin-2-one]	18.8	
N#Cc1cnc(N2CCc3nc4[nH]c(=O)[nH]c4cc3C2)c(Cl)c1 [Example 56, 7-(3-chloro-5-cyanopyridin-2-yl)-1,3,5,6,7,8-hexahydro-2H-imidazo[4,5-b][1,6]naphthyridin-2-one]		10.6
Cn1c(=O)[nH]c2nc3ccc(-c4ccc(F)cc4)c(Cl)c3cc21 [Example 93, 8-chloro-7-(4-fluorophenyl)-1-methyl-1,3-dihydro-2H-imidazo[4,5-b]quinolin-2-one]		8.7
O=c1[nH]c2cc3cc(-c4ncn(C(F)F)c4Cl)ccc3nc2[nH]1 [Example 37, 7-(5-chloro-1-(difluoromethyl)-1H-imidazol-4-yl)-1,3-dihydro-2H-imidazo[4,5-b]quinolin-2-one]	1	
Cc1ccc(-c2ccc3nc4c(cc3c2Cl)C(=O)C(=O)N4)cc1 [Example 95, 5-chloro-6-(p-tolyl)-1H-pyrrolo[2,3-b]quinolin-2,3-dione]		55.5
COc1c(-c2ccc(F)cc2Cl)ccc2nc3[nH]c(=O)[nH]c3cc12 [Example 85, 7-(2-chloro-4-fluorophenyl)-8-methoxy-1,3-dihydro-2H-imidazo[4,5-b]quinolin-2-one]		0.3
Cc1ccc(-c2ccc3nc4[nH]c(=O)[nH]c4cc3c2C(F)(F)F)cc1 [Example 79, 7-(p-tolyl)-8-(trifluoromethyl)-1,3-dihydro-2H-imidazo[4,5-b]quinolin-2-one]		0.4
O=c1[nH]c2cc3c(Cl)c(-c4ccccc4)ccc3nc2[nH]1 [Example 65, 8-chloro-7-phenyl-1,3-dihydro-2H-imidazo[4,5-b]quinolin-2-one]		0.8
